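Test compounds were applied to cells in 96-well plates for 48 hours at 5 doses. TGI is the concentration that stops growth completely.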
Legend:
Assay in all cases: NCI anticancer screen, dose series, 48 h
[1] = test system: KM12 colon
[2] = test system: CAKI-1 renal
[3] = test system: A549 NSCLC
[4] = test system: RXF 393 renal
[5] = test system: HL-60(TB) leukemia
[6] = test system: HS 578T breast
[7] = test system: OVCAR-4 ovarian
[8] = test system: MCF7 breast
[9] = test system: SNB-75 CNS
[10] = test system: NCI-H226 lung
[11] = test system: K-562 leukemia
[12] = test system: MDA-N
[13] = test system: A498 renal
[14] = test system: SF-295 CNS
[15] = test system: SNB-19 CNS
[16] = test system: NCI-H460 lung
[17] = test system: OVCAR-8 ovarian
[18] = test system: IGROV1 ovarian
[19] = test system: HCC-2998 colon
[20] = test system: NCI/ADR-RES ovarian
[21] = test system: SR leukemia
[22] = test system: NCI-H23 lung
[23] = test system: SW-620 colon
[24] = test system: HCT-116 colon
[25] = test system: SF-268 CNS
[26] = test system: SK-OV-3 ovarian
[27] = test system: MOLT-4 leukemia
[28] = test system: EKVX NSCLC
[29] = test system: NCI-H522 lung
[30] = test system: HOP-62 NSCLC
[31] = test system: DU-145 prostate
[32] = test system: SK-MEL-2 melanoma
[33] = test system: ACHN renal
[34] = test system: SN12C renal
[35] = test system: RPMI-8226 leukemia
[36] = test system: BT-549 breast
[37] = test system: COLO 205 colon
[38] = test system: PC-3 prostate
[39] = test system: CCRF-CEM leukemia
[40] = test system: UACC-62 melanoma
[41] = test system: MDA-MB-231 breast
[42] = test system: UO-31 renal
[43] = test system: U251 CNS
[44] = test system: SK-MEL-28 melanoma
[45] = test system: T-47D breast
[46] = test system: TK-10 renal
[47] = test system: 786-0 renal
[48] = test system: SF-539 CNS
[49] = test system: MDA-MB-435
[50] = test system: M14 melanoma
[51] = test system: HT29 colon
[52] = test system: SK-MEL-5 melanoma
[53] = test system: OVCAR-3 ovarian
[54] = test system: HOP-92 NSCLC
[55] = test system: LOX IMVI melanoma
[56] = test system: UACC-257 melanoma
[57] = test system: MALME-3M melanoma
[58] = test system: HCT-15 colon
[59] = test system: OVCAR-5 ovarian

Measured: TGI

NC(=O)NC(=O)c1cccc(NC(=O)CF)c1
80.6 µM: [42]
> 100 µM: [1] | [2] | [3] | [4] | [5] | [6] | [7] | [8] | [9] | [10] | [11] | [12] | [13] | [14] | [15] | [16] | [17] | [18] | [19] | [20] | [21] | [22] | [23] | [24] | [25] | [26] | [27] | [28] | [29] | [30] | [31] | [32] | [33] | [34] | [35] | [36] | [37] | [38] | [39] | [40] | [41] | [43] | [44] | [45] | [46] | [47] | [48] | [49] | [50] | [51] | [52] | [53] | [54] | [55] | [56] | [57] | [58] | [59]

COc1cccc(C2SCC(=O)N2c2ccc(-n3c(-c4ccccc4)nc4ccccc4c3=O)cc2)c1OC (stereo unspecified)
> 100 µM: [1] | [2] | [3] | [4] | [5] | [6] | [7] | [8] | [9] | [10] | [11] | [12] | [13] | [14] | [15] | [16] | [17] | [18] | [19] | [20] | [21] | [22] | [23] | [24] | [25] | [26] | [27] | [28] | [29] | [30] | [31] | [32] | [33] | [34] | [35] | [36] | [37] | [38] | [39] | [40] | [41] | [42] | [43] | [44] | [45] | [46] | [47] | [48] | [49] | [50] | [51] | [52] | [53] | [54] | [55] | [56] | [57] | [58] | [59]

COc1cccc2c1C(=O)c1ccc3cc(CCl)cc(O)c3c1C2=O
1.08 µM: [30]
1.54 µM: [18]
1.27 µM: [22]
1.13 µM: [21] | [58]
1.1 µM: [32]
1.04 µM: [44]
2.49 µM: [11]
2.23 µM: [14]
1.14 µM: [42]
1.15 µM: [29]
0.467 µM: [37]
0.823 µM: [46]
0.973 µM: [38]
0.701 µM: [48]
0.84 µM: [33]
0.432 µM: [47]
1.42 µM: [25]
2.32 µM: [6]
1.98 µM: [39]
1.86 µM: [15]
0.698 µM: [56]
0.515 µM: [57]
1.78 µM: [10] | [31]
1.7 µM: [2] | [13]
1.67 µM: [9] | [43]
1.39 µM: [20] | [36]
1.73 µM: [45] | [54]
1.83 µM: [26]
1.71 µM: [59]
0.578 µM: [51]
1.36 µM: [3]
0.768 µM: [16]
0.551 µM: [5]
0.756 µM: [4]
1.46 µM: [19]
1.19 µM: [52]
0.35 µM: [41]
0.765 µM: [12]
2.88 µM: [27]
0.46 µM: [49]
1.57 µM: [28]
0.687 µM: [40]
0.339 µM: [1]
0.29 µM: [24]
0.595 µM: [55]
0.743 µM: [50]
0.334 µM: [34]
0.293 µM: [23]
1.37 µM: [35]
0.696 µM: [53]
1.31 µM: [8]
0.612 µM: [17]

Reference: PubChem BioAssay (NCI)
